Assay: Agonist activity at VDR in human HL60 cells assessed as induction of cell differentiation after 96 hrs by NBT assay

EC50	Compound
450 nM	CCC(C)C(CO)NC(=O)c1ccc(C(CC)(CC)c2ccc(OCCC(O)(CC)CC)c(C)c2)n1CC (stereo unspecified)
238 nM	CCn1c(C(=O)NCCCN2CCOCC2)ccc1C(CC)(CC)c1ccc(OCCC(O)(CC)CC)c(C)c1
89 nM	CCn1c(C(=O)N(C)CC(=O)O)ccc1C(CC)(CC)c1ccc(OCCC(O)(CC)CC)c(C)c1
96 nM	CCn1c(C(=O)NC(C)CO)ccc1C(CC)(CC)c1ccc(OCCC(O)(CC)CC)c(C)c1 (stereo unspecified)
2.3 nM	CCN(CC)CCNC(=O)c1ccc(C(CC)(CC)c2ccc(OCCC(O)(CC)CC)c(C)c2)n1CC
11 nM	CCN(CC)CCCNC(=O)c1ccc(C(CC)(CC)c2ccc(OCCC(O)(CC)CC)c(C)c2)n1CC
82 nM	CCn1c(C(=O)NCCN(C)C)ccc1C(CC)(CC)c1ccc(OCCC(O)(CC)CC)c(C)c1
26 nM	CCn1c(C(=O)NC(CC(=O)O)C(=O)OC)ccc1C(CC)(CC)c1ccc(OCCC(O)(CC)CC)c(C)c1 (stereo unspecified)
860 nM	CCC(C)C(NC(=O)c1ccc(C(CC)(CC)c2ccc(OCCC(O)(CC)CC)c(C)c2)n1CC)C(=O)O (stereo unspecified)
520 nM	CCOC(=O)CN(C)C(=O)c1ccc(C(CC)(CC)c2ccc(OCCC(O)(CC)CC)c(C)c2)n1CC
2490 nM	CCn1c(C(=O)NC(CO)CCO)ccc1C(CC)(CC)c1ccc(OCCC(O)(CC)CC)c(C)c1 (stereo unspecified)
66 nM	CCn1c(C(=O)NC(C)C(=O)O)ccc1C(CC)(CC)c1ccc(OCCC(O)(CC)CC)c(C)c1 (stereo unspecified)
1080 nM	CCn1c(C(=O)NCC#N)ccc1C(CC)(CC)c1ccc(OCCC(O)(CC)CC)c(C)c1
5 nM	CCn1c(C(=O)NCCCN(C)C)ccc1C(CC)(CC)c1ccc(OCCC(O)(CC)CC)c(C)c1
1630 nM	CCOc1ccc(NC(=O)c2ccc(C(CC)(CC)c3ccc(OCCC(O)(CC)CC)c(C)c3)n2CC)cc1
> 10000 nM	CCC(C)C(NC(=O)c1ccc(C(CC)(CC)c2ccc(OCCC(O)(CC)CC)c(C)c2)n1CC)C(=O)OC (stereo unspecified)
> 10000 nM	CCn1c(C(=O)N(CCC#N)CCC#N)ccc1C(CC)(CC)c1ccc(OCCC(O)(CC)CC)c(C)c1
53 nM	CCn1c(C(=O)N(C)CCO)ccc1C(CC)(CC)c1ccc(OCCC(O)(CC)CC)c(C)c1
6030 nM	C#CCCOC(=O)c1ccc(C(CC)(CC)c2ccc(OCCC(O)(CC)CC)c(C)c2)n1CC
5900 nM	CCn1c(C(=O)Nc2cccc(C(F)(F)F)c2)ccc1C(CC)(CC)c1ccc(OCCC(O)(CC)CC)c(C)c1
> 10000 nM	CCn1c(C(=O)Nc2ccc(OC(F)(F)F)cc2)ccc1C(CC)(CC)c1ccc(OCCC(O)(CC)CC)c(C)c1
2650 nM	C#CC(C)OC(=O)c1ccc(C(CC)(CC)c2ccc(OCCC(O)(CC)CC)c(C)c2)n1CC (stereo unspecified)
156 nM	CCn1c(C(=O)NCCN)ccc1C(CC)(CC)c1ccc(OCCC(O)(CC)CC)c(C)c1
8.5 nM	CCn1c(C(=O)NC(C)CO)ccc1C(CC)(CC)c1ccc(OCC(O)C(C)(C)C)c(C)c1 (stereo unspecified)
> 10000 nM	CCn1c(C(=O)Oc2ccc(CC(=O)OC)cc2)ccc1C(CC)(CC)c1ccc(OCCC(O)(CC)CC)c(C)c1
> 10000 nM	C=CCN(C)C(=O)c1ccc(C(CC)(CC)c2ccc(OCCC(O)(CC)CC)c(C)c2)n1CC

— BindingDB's records for doi:10.1021/acs.jmedchem.8b00106 (China Pharmaceutical University, 2018)
